Experimental data: US8192962B2, “Processes for detecting toxic substances” (Daikin Industries, Ltd., priority 2001, dated 2012)

System: Metabolism protein genes
Test: DNA chip mRNA expression in yeast, metabolism protein genes (Table 7)
Type: cell-based, Saccharomyces cerevisiae S288C
Description: Yeast (Saccharomyces cerevisiae S288C (α SUC2mal mel gap2 CUP1)) were incubated at 25° C. on YPD medium (yeast extract 1%, polypepton 2%, glucose 2%). One of toxic chemical substances was added to the cells at logarithmic growth phase, and the cells were further incubated for two hours. Cells were cultured without any chemical substance in the same condition, and were used as control. Concentrations of the chemical substances were defined to inhibit the growth of the yeast but not lead to death.
After completion of the incubation, the culture was centrifuged to collect the cells. To the cells, sodium acetate buffer (50 mM sodium acetate, 10 mM EDTA, 1% SDS) was added, and the mixture was shaken at 65° C. for five minutes, followed by returning to room temperature, and obtaining the supernatant, of which the procedures were repeated two times. To the supernatant, ½ amount of a solution of phenol/chloroform was added, and the mixture was centrifuged to give a supernatant, which was added with an equal amount of chloroform, and the mixture was centrifuged to give a supernatant. To the supernatant, an equal amount of isopropanol containing 0.3 M sodium acetate was added, and the mixture was allowed to stand at room temperature for 30 minutes, after which the mixture was centrifuged to give a sediment of the whole RNAs. Seventy % ethanol was added to the sediment, and the mixture was again centrifuged to give a sediment, which was then dried and dissolved in water. mRNA was isolated from the whole RNAs as followings. In view of the fact that a poly A chain is attached to the 3′ terminus of mRNA, a polynucleotide having a poly T structure which was immobilized on the surface of latex beads was used to trap the mRNA, and then the mRNA was washed and eluted with spine column (Oligotex-dT30<Super>mRNA Purification Kit, Takara). Reverse transcription of the mRNA was conducted with a reverse transcriptase (Super Script II Reverse Transcriptase; catalogue No. 18064-014, GibcoBRL) using fluorescence-labeled nucleotides to give cDNAs that were introduced with Cy3-dUTP or Cy5-dUTP during the reverse transcription.
The labeled cDNAs were dissolved in TE buffer (10mM Tris-HCl/1 mM EDTA, pH8.0), and the solution was dropped on the DNA chip containing the whole genes of yeast (DNA Chip Research Inc. Japan) so that the cDNAs were hybridized on the DNA chip at 65° C. for over 12 hours. The fluoresces intensity of the DNA chip was read with a scanner, and the ratio relative to the fluorescence intensity resulting from the absence of chemical substance was estimated as the following, which is shown in Tables 1 to 9: […]

## N#Cc1c(Cl)c(Cl)c(Cl)c(C#N)c1Cl [(9), 2,4,5,6-tetrachloro-1,3-benzenedicarbonitrile]
Yeast gene YJL121C
  level of expressed mRNA in the presence/in the absence of chemical substance: 0.1
Yeast gene YJL172W
  The level of expressed mRNA in the presence of chemical substance/The level of expressed mRNA in the absence of chemical substance: 0.7
Yeast gene YJL219W
  The level of expressed mRNA in the presence of chemical substance/The level of expressed mRNA in the absence of chemical substance: 4.0
Yeast gene YJL221C
  The level of expressed mRNA in the presence of chemical substance/The level of expressed mRNA in the absence of chemical substance: 2.7
Yeast gene YJR077C
  level of expressed mRNA in the presence/in the absence of chemical substance: 0.4
Yeast gene YJR137C
  The level of expressed mRNA in the presence of chemical substance/The level of expressed mRNA in the absence of chemical substance: 9.0
Yeast gene YJR143C
  level of expressed mRNA in the presence/in the absence of chemical substance: 0.1
Yeast gene YJR148W
  The level of expressed mRNA in the presence of chemical substance/The level of expressed mRNA in the absence of chemical substance: 0.7
Yeast gene YJR155W
  The level of expressed mRNA in the presence of chemical substance/The level of expressed mRNA in the absence of chemical substance: 38.2
Yeast gene YKL035W
  The level of expressed mRNA in the presence of chemical substance/The level of expressed mRNA in the absence of chemical substance: 0.8
Yeast gene YKL060C
  level of expressed mRNA in the presence/in the absence of chemical substance: 0.3
Yeast gene YKL091C
  The level of expressed mRNA in the presence of chemical substance/The level of expressed mRNA in the absence of chemical substance: 2.3
Yeast gene YKL104C
  The level of expressed mRNA in the presence of chemical substance/The level of expressed mRNA in the absence of chemical substance: 1.4
Yeast gene YKL148C
  level of expressed mRNA in the presence/in the absence of chemical substance: 1.7
Yeast gene YKL152C
  The level of expressed mRNA in the presence of chemical substance/The level of expressed mRNA in the absence of chemical substance: 0.9
Yeast gene YKL157W
  level of expressed mRNA in the presence/in the absence of chemical substance: 1.7
Yeast gene YKL213C
  The level of expressed mRNA in the presence of chemical substance/The level of expressed mRNA in the absence of chemical substance: 4.8
Yeast gene YKL215C
  The level of expressed mRNA in the presence of chemical substance/The level of expressed mRNA in the absence of chemical substance: 1.3
Yeast gene YKR034W
  level of expressed mRNA in the presence/in the absence of chemical substance: 0.5
Yeast gene YKR039W
  The level of expressed mRNA in the presence of chemical substance/The level of expressed mRNA in the absence of chemical substance: 1.9
Yeast gene YLL058W
  The level of expressed mRNA in the presence of chemical substance/The level of expressed mRNA in the absence of chemical substance: 3.5
Yeast gene YLR006C
  level of expressed mRNA in the presence/in the absence of chemical substance: 1.1
Yeast gene YLR058C
  level of expressed mRNA in the presence/in the absence of chemical substance: 0.2
Yeast gene YLR081W
  level of expressed mRNA in the presence/in the absence of chemical substance: 0.1
Yeast gene YLR089C
  level of expressed mRNA in the presence/in the absence of chemical substance: 0.5
Yeast gene YLR142W
  The level of expressed mRNA in the presence of chemical substance/The level of expressed mRNA in the absence of chemical substance: 3.1
Yeast gene YLR164W
  The level of expressed mRNA in the presence of chemical substance/The level of expressed mRNA in the absence of chemical substance: 5.3
Yeast gene YLR180W
  The level of expressed mRNA in the presence of chemical substance/The level of expressed mRNA in the absence of chemical substance: 0.8
Yeast gene YLR260W
  The level of expressed mRNA in the presence of chemical substance/The level of expressed mRNA in the absence of chemical substance: 2.6
Yeast gene YLR273C
  The level of expressed mRNA in the presence of chemical substance/The level of expressed mRNA in the absence of chemical substance: 2.8
Yeast gene YLR284C
  level of expressed mRNA in the presence/in the absence of chemical substance: 0.9
Yeast gene YLR299W
  The level of expressed mRNA in the presence of chemical substance/The level of expressed mRNA in the absence of chemical substance: 4.9
Yeast gene YLR300W
  The level of expressed mRNA in the presence of chemical substance/The level of expressed mRNA in the absence of chemical substance: 0.0
Yeast gene YLR304C
  level of expressed mRNA in the presence/in the absence of chemical substance: 0.1
Yeast gene YLR307W
  The level of expressed mRNA in the presence of chemical substance/The level of expressed mRNA in the absence of chemical substance: 0.6
Yeast gene YLR348C
  The level of expressed mRNA in the presence of chemical substance/The level of expressed mRNA in the absence of chemical substance: 2.1
Yeast gene YLR354C
  level of expressed mRNA in the presence/in the absence of chemical substance: 0.4
Yeast gene YML022W
  level of expressed mRNA in the presence/in the absence of chemical substance: 0.3
Yeast gene YML042W
  The level of expressed mRNA in the presence of chemical substance/The level of expressed mRNA in the absence of chemical substance: 3.8
Yeast gene YML054C
  The level of expressed mRNA in the presence of chemical substance/The level of expressed mRNA in the absence of chemical substance: 4.1
Yeast gene YML070W
  The level of expressed mRNA in the presence of chemical substance/The level of expressed mRNA in the absence of chemical substance: 4.5
Yeast gene YML100W
  The level of expressed mRNA in the presence of chemical substance/The level of expressed mRNA in the absence of chemical substance: 1.7
Yeast gene YML110C
  The level of expressed mRNA in the presence of chemical substance/The level of expressed mRNA in the absence of chemical substance: 2.7
Yeast gene YMR008C
  The level of expressed mRNA in the presence of chemical substance/The level of expressed mRNA in the absence of chemical substance: 0.3
Yeast gene YMR015C
  level of expressed mRNA in the presence/in the absence of chemical substance: 0.1
Yeast gene YMR020W
  The level of expressed mRNA in the presence of chemical substance/The level of expressed mRNA in the absence of chemical substance: 2.3
Yeast gene YMR083W
  level of expressed mRNA in the presence/in the absence of chemical substance: 0.4
Yeast gene YMR105C
  The level of expressed mRNA in the presence of chemical substance/The level of expressed mRNA in the absence of chemical substance: 0.6
Yeast gene YMR189W
  The level of expressed mRNA in the presence of chemical substance/The level of expressed mRNA in the absence of chemical substance: 0.7
Yeast gene YMR205C
  level of expressed mRNA in the presence/in the absence of chemical substance: 0.3
